Source: patent US8481456B2 (priority 2009, dated 2013)
Where two headings read alike, the source gives them in different places.

Columns and labels:
[1] = tested on: larvae of the mustard beetle (Phaedon cochleariae); test: Phaedon cochleariae larvae test; type: in vivo; details: for mortality at 200 ppm: 200 ppm a.i.
Description: (§1) Cabbage leaves (Brassica oleracea) are treated by being sprayed into the preparation of the active compound of the desired concentration and are infested with larvae of the mustard beetle (Phaedon cochleariae) as long as the leaves are still moist. After the specified period of time, the mortality in % is determined. 100% means that all the beetle larvae have been killed; 0% means that none of the beetle larvae have been killed.

Alternaria solani = test: Alternaria test (tomatoes)/preventive; type: in vivo; details: for pest or weed control at 100 ppm / pest or weed control at 200 ppm: read-out: Efficacy in %, found; for pest or weed control at 12.5 ppm: 12.5 ppm a.i.; for pest or weed control at 25 ppm: 25 ppm a.i.
Phytophthora infestans = test: whole plant or invertebrate; type: in vivo; details: 3 days after the inoculation; for pest or weed control at 200 ppm: 200 ppm a.i.; for pest or weed control at 50 ppm: 50 ppm a.i.
[2] = tested on: apple scab (Venturia inaequalis); test: Venturia test (apples)/preventive; details: for Efficacy in %, found: Table L2, 10 days after the inoculation
Septoria tritici = Septoria tritici test (wheat)/preventive; type: in vivo; details: 21 days after the inoculation
Pyrenophora teres = Pyrenophora teres test (barley)/preventive; type: in vivo; details: 8 days after the inoculation
[3] = tested on: Green peach aphid (Myzus persicae); test: Myzus persicae test; type: in vivo; details: for mortality at 0.8 ppm: 0.8 ppm a.i.; for mortality at 200 ppm: 200 ppm a.i.
Description: Cabbage leaves (Brassica oleracea) which are heavily infested by the Green peach aphid (Myzus persicae) are treated by being sprayed into the preparation of the active compound of the desired concentration. After the specified period of time, the mortality in % is determined. 100% means that all the aphids have been killed; 0% means that none of the aphids have been killed.

Botrytis cinerea = test: Botrytis test (beans)/preventive; details: 2 days after the inoculation
[4] = tested on: larvae of the diamondback moth (Plutella xylostella); test: Plutella xylostella test; type: in vivo; details: for mortality at 200 ppm: 200 ppm a.i.
Description: as §1, with “diamondback moth (Plutella xylostella)” for “mustard beetle (Phaedon cochleariae)”, “caterpillars” for “beetle larvae”

[5] = tested on: larvae of the fall army worm (Spodoptera frugiperda); test: Spodoptera frugiperda test/seed application; type: in vivo; details: corn seed treatment
Description: 14 days after sowing the leaves were cut off and infested with larvae of the fall army worm (Spodoptera frugiperda). After the specitied period of time, the mortality in % is determined. 100% means that all the caterpillars have been killed; 0% means that none of the caterpillars have been killed.

Fusarium graminearum = type: in vivo; details: 1000 ppm a.i.; 5 days after the inoculation
[6] = tested on: Fusarium nivale (var. majus); test: Fusarium nivale (var. majus)-test (wheat)/preventive; details: 5 days after the inoculation
[7] = 72 h, read-out: Mortality in % after 3 d, found
[8] = Venturia inaequalis, 240 h, read-out: Efficacy in %, found
[9] = Phytophthora infestans, 72 h, read-out: Efficacy in %, found, Table I2
[10] = Phytophthora infestans, 72 h, read-out: Efficacy in %, found, Table I1, 100 ppm a.i.
[11] = Phytophthora infestans, 72 h, read-out: Efficacy in %, found, Table I1
[12] = 72 h, 4 ppm a.i., after 3 d, read-out: Mortality in % after 3 d, found
[13] = 48 h, after 2 d, read-out: Mortality in % after 2 d, found
[14] = 24 h, after 1 d, read-out: Mortality in % after 1 d, found
[15] = 72 h, after 3 d, read-out: Mortality in % after 3 d, found
[16] = Alternaria solani, 72 h, read-out: Efficacy in %, found, Table E1, 3 days after the inoculation
[17] = Alternaria solani, 72 h, read-out: Efficacy in %, found, Table E2, 3 days after the inoculation

## CNC(=O)Oc1cc(C)c(SC)c(C)c1 [(1A.15), methiocarb]
[1]; [7]
  mortality at 20 ppm: 35%
Alternaria solani; Alternaria solani, 72 h
  pest or weed control at 100 ppm: 45%
  pest or weed control at 200 ppm: 47%
Phytophthora infestans; Phytophthora infestans, 72 h, read-out: Efficacy in %, found, Table I2, 100 ppm a.i.
  pest or weed control at 100 ppm: 16%
[2]; [8]
  pest or weed control at 100 ppm: 4%

## Cc1c(F)c(F)c(COC(=O)[C@@H]2[C@H](/C=C(\Cl)C(F)(F)F)C2(C)C)c(F)c1F (racemic) [(3A.43), tefluthrin]
Phytophthora infestans; [9]
  pest or weed control at 200 ppm: 0%
Septoria tritici; 500 ppm a.i.
  Efficacy in %, found: 0%
[2]; [8]
  pest or weed control at 100 ppm: 23%

## O=C1C=C(N(Cc2ccc(Cl)nc2)CC(F)F)CO1 [(27.16), 4-{[(6-chloropyridin-3-yl)methyl](2,2-difluoroethyl)amino}furan-2(5H)-one]
Phytophthora infestans; [9]
  pest or weed control at 200 ppm: 30%
Septoria tritici; 1000 ppm a.i.
  Efficacy in %, found: 0%
[2]; [8]
  pest or weed control at 200 ppm: 8%

## N#Cc1nn(-c2c(Cl)cc(C(F)(F)F)cc2Cl)c(N)c1[S+]([O-])C(F)(F)F (stereo not shown) [(2B.2), fipronil]
Alternaria solani; Alternaria solani, 72 h
  pest or weed control at 100 ppm: 28%
  pest or weed control at 200 ppm: 44%
Phytophthora infestans; [10]
  pest or weed control at 100 ppm: 30%
Phytophthora infestans; [11]
  pest or weed control at 200 ppm: 47%
Pyrenophora teres; Table J2, 500 ppm a.i.
  Efficacy in %, found: 0%
[2]; [8]
  pest or weed control at 200 ppm: 8%

## CNC(=O)c1cc(C#N)cc(C)c1NC(=O)c1cc(Br)nn1-c1ncccc1Cl [(26.2), cyantraniliprole (cyazypyr)]
[3]; 48 h, 4 ppm a.i., after 2 d, read-out: Mortality in % after 2 d, found
  mortality at 4 ppm: 50%
[1]; 72 h, 0.8 ppm a.i., after 3 d, read-out: Mortality in % after 3 d, found
  mortality at 0.8 ppm: 25%
Alternaria solani; Alternaria solani, 72 h
  pest or weed control at 100 ppm: 28%
Phytophthora infestans; [10]
  pest or weed control at 100 ppm: 30%
Botrytis cinerea; 100 ppm a.i.
  Efficacy in %, found: 0%
Botrytis cinerea; 200 ppm a.i.
  Efficacy in %, found: 0%
[2]; [8]
  pest or weed control at 100 ppm: 0%
  pest or weed control at 200 ppm: 18%

## spinosad [(5.2)]
[4]; 4 ppm a.i., after 1 d
  Mortality in % after 1 d, found: 70%
Phytophthora infestans; Table I2, 100 ppm a.i.
  Efficacy in %, found: 10%
Pyrenophora teres; Table J1, 1000 ppm a.i.
  Efficacy in %, found: 0%

## CC1(C)C(C=C(Cl)Cl)C1C(=O)OC(C#N)c1ccc(F)c(Oc2ccccc2)c1 (stereo not shown) [(3A.10), cyfluthrin]
Pyrenophora teres; Table J2, 500 ppm a.i.
  Efficacy in %, found: 0%

## CN/C(=N\[N+](=O)[O-])NCc1cnc(Cl)s1 [(4A.2), clothianidin]
[1]; [12]
  mortality at 4 ppm: 0%
Alternaria solani; Alternaria solani, 72 h
  pest or weed control at 100 ppm: 49%
  pest or weed control at 200 ppm: 45%
Phytophthora infestans; [10]
  pest or weed control at 100 ppm: 30%
Pyrenophora teres; Table J2, 500 ppm a.i.
  Efficacy in %, found: 0%
[2]; [8]
  pest or weed control at 100 ppm: 0%
  pest or weed control at 200 ppm: 0%

## CN1COCN(Cc2cnc(Cl)s2)/C1=N\[N+](=O)[O-] [(4A.7), thiamethoxam]
Alternaria solani; Alternaria solani, 72 h, Table E1, 200 ppm a.i., 3 days after the inoculation
  pest or weed control at 200 ppm: 64%
Phytophthora infestans; [10]
  pest or weed control at 100 ppm: 30%
Pyrenophora teres; Table J1, 1000 ppm a.i.
  Efficacy in %, found: 0%
Botrytis cinerea; 100 ppm a.i.
  Efficacy in %, found: 0%
[2]; [8]
  pest or weed control at 100 ppm: 18%
  pest or weed control at 200 ppm: 25%

## CNC(=O)c1cc(Cl)cc(C)c1NC(=O)c1cc(Br)nn1-c1ncccc1Cl [(26.1), chloranthraniliprole (rynaxypyr)]
[3]; [13]
  mortality at 0.8 ppm: 40%
[4]; Plutella xylostella, 24 h, 4 ppm a.i., after 1 d, read-out: Mortality in % after 1 d, found
  mortality at 4 ppm: 25%
Alternaria solani; Alternaria solani, 72 h
  pest or weed control at 100 ppm: 37%
  pest or weed control at 200 ppm: 37%
Phytophthora infestans; [10]
  pest or weed control at 100 ppm: 32%
Pyrenophora teres; Table J2, 500 ppm a.i.
  Efficacy in %, found: 14%
Botrytis cinerea; 100 ppm a.i.
  Efficacy in %, found: 0%
Botrytis cinerea; 200 ppm a.i.
  Efficacy in %, found: 0%
[2]; [8]
  pest or weed control at 100 ppm: 0%

## O=[N+]([O-])NC1=NCCN1Cc1ccc(Cl)nc1 [(4A.4), imidacloprid]
[1]; 24 h, 20 ppm a.i., after 1 d, read-out: Mortality in % after 1 d, found
  mortality at 20 ppm: 0%
[5]; 0.25 mg a.i./seed
  Efficacy in % 1 d after infestation, found: 0%
Alternaria solani; Alternaria solani, 72 h
  pest or weed control at 100 ppm: 13%
  pest or weed control at 200 ppm: 30%
Fusarium graminearum
  Efficacy in %, found: 0%

## N#C/N=C1\SCCN1Cc1ccc(Cl)nc1 [(4A.6), thiacloprid]
[3]; 4 ppm a.i., after 4 h, read-out: Mortality in % after 4 h, found
  mortality at 4 ppm: 20%
Alternaria solani; Alternaria solani, 72 h
  pest or weed control at 100 ppm: 13%
Phytophthora infestans; [10]
  pest or weed control at 100 ppm: 16%
[2]; [8]
  pest or weed control at 200 ppm: 4%
[6]; 1000 ppm a.i.
  Efficacy in %, found: 0%

## abamectin [(6.1)]
[4]; 4 ppm a.i., after 1 d
  Mortality in % after 1 d, found: 75%
[5]; 0.25 mg a.i./seed
  Efficacy in % 3 d after infestation, found: 4.8%
Alternaria solani; Table E2, 100 ppm a.i., 3 days after the inoculation
  Efficacy in %, found: 32%
[2]; 100 ppm a.i.
  Efficacy in %, found: 53%
[2]; 200 ppm a.i.
  Efficacy in %, found: 51%

## CC1(C)[C@H](C=C(Cl)Cl)[C@H]1C(=O)OCc1c(F)c(F)cc(F)c1F [(3A.46), transfluthrin]
[3]; [12]
  mortality at 4 ppm: 0%

## C/C(=N\C#N)N(C)Cc1ccc(Cl)nc1 [(4A.1), acetamiprid]
[3]; 24 h, read-out: Mortality in % after 1 d, found
  mortality at 4 ppm: 10%
[1]; [7]
  mortality at 4 ppm: 0%
Phytophthora infestans; [11]
  pest or weed control at 200 ppm: 27%
Botrytis cinerea; 100 ppm a.i.
  Efficacy in %, found: 0%

## CS/C(C)=N\OC(=O)N(C)SN(C)C(=O)O/N=C(\C)SC [(1A.21), thiodicarb]
Alternaria solani; Alternaria solani, 72 h
  pest or weed control at 200 ppm: 52%
[6]; 1000 ppm a.i.
  Efficacy in %, found: 0%

## CC(c1ccc(C(F)(F)F)nc1)S(C)(=O)=NC#N (stereo not shown) [(27.27), sulfoxaflor]
[3]; [14]
  mortality at 0.8 ppm: 20%
Alternaria solani; Alternaria solani, 72 h
  pest or weed control at 100 ppm: 0%
  pest or weed control at 200 ppm: 51%
Botrytis cinerea; 200 ppm a.i.
  Efficacy in %, found: 0%
[2]; [8]
  pest or weed control at 100 ppm: 0%

## CC1(C)C(C=C(Cl)Cl)C1C(=O)OC(C#N)c1ccc(F)c(Oc2ccccc2)c1 (stereo not drawn) [(3A.11), β-cyfluthrin]
[4]; 4 ppm a.i., after 2 d
  Mortality in % after 2 d, found: 40%

## Cn1c(=O)c2sc3c(=O)n(C)c(=O)c3sc2c1=O [(I-1), 2,6-dimethyl-1H,5H-[1,4]dithiino[2,3-c:5,6-c′]dipyrrole-1,3,5,7(2H,6H)-tetrone]
[3]; after 4 h, read-out: Mortality in % after 4 h, found
  mortality at 200 ppm: 0%
[3]; [14]
  mortality at 200 ppm: 0%
[3]; [13]
  mortality at 200 ppm: 0%
[3]; [15]
  mortality at 200 ppm: 0%
[1]; [14]
  mortality at 200 ppm: 0%
[1]; [15]
  mortality at 200 ppm: 0%
[4]; Plutella xylostella, 24 h, after 1 d, read-out: Mortality in % after 1 d, found
  mortality at 200 ppm: 0%
[4]; Plutella xylostella, 48 h, after 2 d, read-out: Mortality in % after 2 d, found
  mortality at 200 ppm: 0%
[5]; 1 mg a.i./seed
  Efficacy in % 1 d after infestation, found: 0%
  Efficacy in % 3 d after infestation, found: 23.8%
Alternaria solani; [16]
  pest or weed control at 12.5 ppm: 13%
  pest or weed control at 25 ppm: 54%
Alternaria solani; [17]
  pest or weed control at 12.5 ppm: 30%
  pest or weed control at 25 ppm: 50%
Alternaria solani; Alternaria solani, 72 h, read-out: Efficacy in %, found, Table E2, 50 ppm a.i., 3 days after the inoculation
  pest or weed control at 50 ppm: 58%
Fusarium graminearum
  Efficacy in %, found: 50%
Phytophthora infestans; Phytophthora infestans, 72 h, read-out: Efficacy in %, found, Table I1, 12.5 ppm a.i.
  pest or weed control at 12.5 ppm: 18%
Phytophthora infestans; [11]
  pest or weed control at 50 ppm: 43%
Phytophthora infestans; [9]
  pest or weed control at 50 ppm: 28%
Pyrenophora teres; Table J1, 1000 ppm a.i.
  Efficacy in %, found: 43%
Pyrenophora teres; Table J2, 500 ppm a.i.
  Efficacy in %, found: 43%
Septoria tritici; 500 ppm a.i.
  Efficacy in %, found: 0%
Botrytis cinerea; 25 ppm a.i.
  Efficacy in %, found: 13%
Botrytis cinerea; 50 ppm a.i.
  Efficacy in %, found: 48%
[2]; [8]
  pest or weed control at 12.5 ppm: 33%
  pest or weed control at 50 ppm: 29%
[6]; 500 ppm a.i.
  Efficacy in %, found: 29%
